molecular target: T1, EGFR L858R-T790M (Homo sapiens, UniProt P00533, L858R/T790M); test: EGFR degradation, Total EGFR (L858R-specific) HTRF, NCI-H1975; format: cell-based; details: Table 9B; NCI-H1975 cells, 6 hours, Total EGFR HTRF; read-out: H1975 EGFR DC50
T1 construct: NCI-H1975 (harboring EGFR heterozygous L858R-T790M mutations); host or cells: NCI-H1975
Text: NCI-H1975 (harboring EGFR heterozygous L858R-T790M mutations) and NCI-H3255 (harboring EGFR heterozygous L858R mutation) were purchased from ATCC and NCI, respectively. NCI-H1975+CS (harboring EGFR heterozygous L858R-T790M-C797S mutations) was generated using CRISPR technology to introduce the additional C797S mutation by Horizon Discovery. A431 (harboring EGFR wildtype) was purchased from ATCC. RPMI 1640 no-phenol red medium and fetal bovine serum (FBS) were purchased from Gibco (Grand Island, NY, USA). Cell culture flasks and 384-well microplates were acquired from VWR (Radnor, PA, USA). Phosphorylated (pY1068) EGFR and Total EGFR (using L858R-specific detection antibody and pan-EGFR antibody for EGFR mutant cell lines and EGFR wild-type cell lines, respectively) HTRF assay kits were purchased from Cisbio (Bedford, MA, USA).
Degradation of EGFR protein containing L858R mutation or wild-type was determined based on quantification of FRET signal using a Total EGFR (L858R-specific or pan-EGFR detecting) HTRF assay kit. Phospho-EGFR (pEGFR) inhibition was determined based on quantification of FRET signal using a pY1068 EGFR HTRF assay kit. In separate assay plates, test compounds were added to the 384-well plate from a top concentration of 10 μM with 11 points, half log titration in duplicates. For each assay, 12.5 uL of cells suspended in assay media (RPMI 1640 no-phenol red medium+10% FBS) at cell densities indicated for each cell line in Table 8 below were dispensed using a multi-channel pipette to 384-well low volume white HTRF microplates containing a duplicate concentration range of test compounds and DMSO controls. The plates were kept at 37° C. with 5% CO2 for 6 hours and then incubated with either phospho EGFR or Total EGFR HTRF detection antibodies according to the cell line and EGFR mutant being assayed. Cells treated in the absence of the test compound were the negative control. Positive control was set by wells containing all reagents but no cells. FRET signal was acquired on EnVision™ Multilabel Reader (PerkinElmer, Santa Clara, CA, USA). Compound concentration that achieves 50% degradation and inhibition was reported as DC50 and IC50, respectively.

T1 sequence (P00533 25-1210 T790M/L858R): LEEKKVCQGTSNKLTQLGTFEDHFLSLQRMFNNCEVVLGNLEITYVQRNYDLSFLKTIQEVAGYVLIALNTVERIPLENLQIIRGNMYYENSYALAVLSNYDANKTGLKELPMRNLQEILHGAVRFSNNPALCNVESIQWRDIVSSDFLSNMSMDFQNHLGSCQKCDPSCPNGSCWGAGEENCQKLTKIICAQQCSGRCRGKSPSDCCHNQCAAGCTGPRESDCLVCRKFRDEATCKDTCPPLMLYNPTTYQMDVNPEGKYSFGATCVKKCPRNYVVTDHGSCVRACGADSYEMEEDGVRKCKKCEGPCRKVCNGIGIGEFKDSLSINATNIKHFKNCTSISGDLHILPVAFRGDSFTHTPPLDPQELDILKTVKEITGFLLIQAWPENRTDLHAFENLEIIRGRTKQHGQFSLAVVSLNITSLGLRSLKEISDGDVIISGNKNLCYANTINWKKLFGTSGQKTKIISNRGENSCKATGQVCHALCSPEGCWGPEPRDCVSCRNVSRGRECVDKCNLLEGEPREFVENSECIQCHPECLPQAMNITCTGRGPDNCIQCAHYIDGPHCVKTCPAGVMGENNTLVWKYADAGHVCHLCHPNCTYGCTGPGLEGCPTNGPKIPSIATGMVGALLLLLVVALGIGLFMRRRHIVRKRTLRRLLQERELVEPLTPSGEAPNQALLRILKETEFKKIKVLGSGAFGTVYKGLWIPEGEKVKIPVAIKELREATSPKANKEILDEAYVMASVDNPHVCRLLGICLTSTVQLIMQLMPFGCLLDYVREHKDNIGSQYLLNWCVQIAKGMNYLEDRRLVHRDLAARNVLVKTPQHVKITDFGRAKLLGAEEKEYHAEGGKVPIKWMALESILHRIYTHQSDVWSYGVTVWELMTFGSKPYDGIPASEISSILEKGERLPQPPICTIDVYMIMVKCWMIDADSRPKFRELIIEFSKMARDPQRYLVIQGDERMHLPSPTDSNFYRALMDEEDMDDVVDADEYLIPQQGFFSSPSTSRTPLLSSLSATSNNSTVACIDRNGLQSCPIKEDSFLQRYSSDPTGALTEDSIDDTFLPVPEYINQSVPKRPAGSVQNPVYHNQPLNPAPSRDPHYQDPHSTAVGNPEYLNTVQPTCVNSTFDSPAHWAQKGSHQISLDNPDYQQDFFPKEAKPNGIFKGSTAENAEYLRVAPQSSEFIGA

`O=C1CCC(Nc2cc(F)c(N3CCC(O)(CC(=O)N4CC5(C4)CN(c4ccc(-c6cc(F)c7c(c6)C(=O)N(C(C(=O)Nc6nccs6)c6ncn8c6CCC8)C7)cc4)C5)CC3)c(Cl)c2)C(=O)N1` (single isomer, unassigned; isomer 1) [Compound 145, 2-[6-[4-[2-[2-[1-[2-chloro-4-[[2,6-dioxo-3-piperidyl]amino]-6-fluoro-phenyl]-4-hydroxy-4-piperidyl]acetyl]-2,6-diazaspiro[3.3]heptan-6-yl]phenyl]-4-fluoro-1-oxo-isoindolin-2-yl]-2-(6,7-dihydro-5H-pyrrolo[1,2-c]imidazol-1-yl)-N-thiazol-2-yl-acetamide, isomer 1] and `O=C1CCC(Nc2ccc(N3CCCC(O)(CC(=O)N4CC5(C4)CN(c4ccc(-c6cc(F)c7c(c6)C(=O)N(C(C(=O)Nc6nccs6)c6ncn8c6CCC8)C7)cc4)C5)CC3)c(F)c2)C(=O)N1` (single isomer, unassigned; isomer a1) [Compound 164, 2-(6,7-dihydro-5H-pyrrolo[1,2-c]imidazol-1-yl)-2-[6-[4-[2-[2-[1-[4-[[2,6-dioxo-3-piperidyl]amino]-2-fluoro-phenyl]-4-hydroxy-azepan-4-yl]acetyl]-2,6-diazaspiro[3.3]heptan-6-yl]phenyl]-4-fluoro-1-oxo-isoindolin-2-yl]-N-thiazol-2-yl-acetamide, isomer A1] fall in the same range of DC50: 50 to 150 nM for the first, 50 to 150 nM for the second.

`O=C1CC[C@H](Nc2ccc(N3CCC(O)(C(=O)N4CC5(C4)CN(c4ccc(-c6cc(F)c7c(c6)C(=O)N(C(C(=O)Nc6nccs6)c6ncn8c6CCC8)C7)cc4)C5)CC3)c(F)c2)C(=O)N1` (single isomer, unassigned; isomer 1) [Compound 146, 2-(6,7-dihydro-5H-pyrrolo[1,2-c]imidazol-1-yl)-2-[6-[4-[2-[1-[4-[[2,6-dioxo-3-piperidyl]amino]-2-fluoro-phenyl]-4-hydroxy-piperidine-4-carbonyl]-2,6-diazaspiro[3.3]heptan-6-yl]phenyl]-4-fluoro-1-oxo-isoindolin-2-yl]-N-thiazol-2-yl-acetamide, isomer 1] and `O=C1CCC(Nc2ccc(N3CCCC(O)(CC(=O)N4CC5(C4)CN(c4ccc(-c6cc(F)c7c(c6)C(=O)N(C(C(=O)Nc6nccs6)c6ncn8c6CCC8)C7)cc4)C5)CC3)c(F)c2)C(=O)N1` (single isomer, unassigned; isomer a2) [Compound 165, 2-(6,7-dihydro-5H-pyrrolo[1,2-c]imidazol-1-yl)-2-[6-[4-[2-[2-[1-[4-[[2,6-dioxo-3-piperidyl]amino]-2-fluoro-phenyl]-4-hydroxy-azepan-4-yl]acetyl]-2,6-diazaspiro[3.3]heptan-6-yl]phenyl]-4-fluoro-1-oxo-isoindolin-2-yl]-N-thiazol-2-yl-acetamide, isomer A2] cannot be ordered by DC50: < 50 nM for the first, < 50 nM for the second.

`Cn1nc(N2CCC(=O)NC2=O)c2ccc(C3CCN(CC(=O)N4CC5(C4)CN(c4ccc(-c6cc(F)c7c(c6)C(=O)N(C(C(=O)Nc6nccs6)c6ncn8c6CCC8)C7)cc4)C5)CC3F)cc21` (single isomer, unassigned; isomer 2) [Compound 125, 2-(6,7-dihydro-5H-pyrrolo[1,2-c]imidazol-1-yl)-2-[6-[4-[2-[2-[4-[3-(2,4-dioxohexahydropyrimidin-1-yl)-1-methyl-indazol-6-yl]-3-fluoro-1-piperidyl]acetyl]-2,6-diazaspiro[3.3]heptan-6-yl]phenyl]-4-fluoro-1-oxo-isoindolin-2-yl]-N-thiazol-2-yl-acetamide, isomer 2] and `Cn1nc(N2CCC(=O)NC2=O)c2cc(F)c(C3CCN(CC(=O)N4CC5(C4)CN(c4ccc(-c6cc(F)c7c(c6)C(=O)N(C(C(=O)Nc6nccs6)c6ncn8c6CCC8)C7)cc4)C5)CC3(F)F)cc21` (single isomer, unassigned; isomer 2) [Compound 130, 2-(6,7-dihydro-5H-pyrrolo[1,2-c]imidazol-1-yl)-2-[6-[4-[2-[2-[4-[3-(2,4-dioxohexahydropyrimidin-1-yl)-5-fluoro-1-methyl-indazol-6-yl]-3,3-difluoro-1-piperidyl]acetyl]-2,6-diazaspiro[3.3]heptan-6-yl]phenyl]-4-fluoro-1-oxo-isoindolin-2-yl]-N-thiazol-2-yl-acetamide, isomer 2] cannot be ordered by DC50: < 50 nM for the first, < 50 nM for the second.

Source: US20240158418A1 (C4 Therapeutics, Inc., priority 2021, published 2024)
